Values quoted from earlier work in patent US20090022799A1, “COMPOSITIONS THAT CONTAIN BETA-GLUCAN TO BE USED FOR THE PREVENTION AND TREATMENT OF DISEASE AND METHODS FOR THEIR USE” (priority 2006, published 2009).
Structures can show the parent of a compound that is named as a salt.

Columns and labels:
[1] = forms a suspension in aqueous solution
[2] = β-Glucan particles
[3] = human clinical trials

Compound	solubility in water [1]	median particle size [2]	safety and tolerability [3]
[H]/N=C(\N/C(=N/[H])NCCCCCCNC(=N)NC(=N)Nc1ccc(Cl)cc1)Nc1ccc(Cl)cc1 [Chlorhexidine hydrochloride, chlorhexidine hydrochloride, reference compound]	limited solubility		
Beta-(1→3)-d-Glucan [β-Glucan]	insoluble	3.7-4.6 μm	safe and well-tolerated
